Assay results as given in patent US4436751A, “Nitrobenzyl monates antibacterial compounds” (Beecham Group Limited, priority 1980, dated 1984).
Values after ≈ are worked out from the molar mass of the structure shown. Where two headings read alike, the source gives them in different places.

Assays:
Assay type in all cases: cell-based
M. suipneumoniae OCD 1 = assay: Anti-mycoplasmal MIC in vitro, Friis broth agarose (Table 1); conditions: Mesomycoplasma hyopneumoniae, OCD1, 144 h
M. suipneumoniae JF 435 = assay: as above; conditions: Mesomycoplasma hyopneumoniae, JF435, 144 h
M. bovis RCTC 10131 = assay: microbe, parasite or virus in culture; conditions: RCTC10131, 144 h
[1] = tested on: M. suipneumoniae ATCC 25095; assay: Anti-mycoplasmal MIC in vitro, Friis broth agarose (Table 1); conditions: Mesomycoplasma hyopneumoniae, ATCC25095, 144 h
[2] = tested on: M. suipneumoniae PW/C/210; assay: as above; conditions: Mesomycoplasma hyopneumoniae, 144 h
[3] = tested on: M. suipneumoniae J2206/183b; assay: as above; conditions: Mesomycoplasma hyopneumoniae, 144 h
M. suipneumoniae LABER = assay: as above; conditions: Mesomycoplasma hyopneumoniae, 144 h
M. suipneumoniae Str. 11 = assay: as above; conditions: Mesomycoplasma hyopneumoniae, STR.11, 144 h
[4] = tested on: M. suipneumoniae NCTC 10110; assay: as above; conditions: Mesomycoplasma hyopneumoniae, NCTC10110, 144 h
M. suipneumoniae TAM 6N = assay: as above; conditions: Mesomycoplasma hyopneumoniae, TAM6N, 144 h
[5] = tested on: Strep. suis (group D) SPS11; assay: Veterinary bacteria MIC, Diagnostic Sensitivity Test Agar (Table 2); conditions: Streptococcus suis
Description: The values were determined using a two fold serial dilutions in Diagnostic Sensitivity Test Agar with an inoculum of 10^4 organisms and incubation for 18 hours at 37° C.

M. dispar RCTC 10125 = assay: Anti-mycoplasmal MIC in vitro, Friis broth agarose (Table 1); conditions: 144 h
M. hyorhinis ATCC 25021 = assay: as above; conditions: Mesomycoplasma hyorhinis, ATCC25021, 144 h
M. suipneumoniae HR(2) = assay: as above; conditions: Mesomycoplasma hyopneumoniae, 144 h
[6] = tested on: Ps. aeruginosa NCTC 10662; assay: Human bacteria MIC, nutrient agar with chocolated horse blood (Table 3); conditions: Pseudomonas aeruginosa
Description: (§1) The values were determined by serial dilutions in nutrient agar with 5% chocolated horse blood after incubations for 18 hours at 37° C.

Strep. faecalis 1 = assay: as above
Description: as §1

P. mirabilis 889 = assay: as above
Description: as §1

Staph. aureus Russell = assay: as above; conditions: Staphylococcus aureus
Description: as §1

[7] = tested on: Strep. pyogenes R80/421-A; assay: as above; conditions: Streptococcus pyogenes
Description: as §1

[8] = tested on: Haemophilus influenzae Q1; assay: as above
Description: as §1

[9] = tested on: Corynebacterium xerosis 9755; assay: as above
Description: as §1

K. aerogenes A = assay: as above; conditions: Klebsiella aerogenes
Description: as §1

Sarcina lutea 8340 = assay: as above
Description: as §1

E. Coli NCTC 10418 = assay: as above; conditions: Escherichia coli
Description: as §1

Bacillus subtilis 6633 = assay: as above
Description: as §1

Staph. aureus W2827 = assay: as above; conditions: Staphylococcus aureus
Description: as §1

Staph. aureus Oxford = assay: as above; conditions: Staphylococcus aureus
Description: as §1

[10] = tested on: Pasteurella multocida 1633; assay: as above
Description: as §1

**Q.** C/C(=C\C(=O)OCc1cccc([N+](=O)[O-])c1C)CC1OCC(CC2OC2C(C)C(C)O)C(O)C1O (centres unmarked) [Example 8, 2-methyl-3-nitrobenzyl monate A] was tested. Which MIC (M. suipneumoniae OCD 1; M. suipneumoniae OCD 1, in vitro, 6 days 37° C., read-out: MIC) did it give?
**A.** 0.25 µg/mL (≈ 0.507 µM)

**Q.** What about the MIC (M. suipneumoniae JF 435) of the same molecule?
**A.** 0.1 µg/mL (≈ 0.203 µM)

**Q.** What about the MIC (M. bovis RCTC 10131) of the same molecule?
**A.** < 0.01 µg/mL

**Q.** What about the MIC [1] of the same molecule?
**A.** 0.1 µg/mL (≈ 0.203 µM)

**Q.** And the MIC [2]?
**A.** 0.1 µg/mL (≈ 0.203 µM)

**Q.** What about the MIC ([3]; M. suipneumoniae J2206/183b, in vitro, 6 days 37° C., read-out: MIC) of the same molecule?
**A.** 0.25 µg/mL (≈ 0.507 µM)

**Q.** And the MIC (M. suipneumoniae LABER)?
**A.** 0.1 µg/mL (≈ 0.203 µM)

**Q.** And the MIC (M. suipneumoniae Str. 11)?
**A.** 0.1 µg/mL (≈ 0.203 µM)

**Q.** What about the MIC [4] of the same molecule?
**A.** 0.1 µg/mL (≈ 0.203 µM)

**Q.** And the MIC (M. suipneumoniae TAM 6N; M. suipneumoniae TAM 6N, in vitro, 6 days 37° C., read-out: MIC)?
**A.** 0.25 µg/mL (≈ 0.507 µM)

**Q.** And the MIC ([5]; Strep. suis (group D) SPS11, DST Agar, 10^4 organisms, 18 hours 37° C., read-out: MIC)?
**A.** 5 µg/mL (≈ 10.1 µM)

**Q.** What about the MIC (M. dispar RCTC 10125; M. dispar RCTC 10125, in vitro, 6 days 37° C., read-out: MIC) of the same molecule?
**A.** 0.05 µg/mL (≈ 0.101 µM)

**Q.** And the MIC (M. hyorhinis ATCC 25021)?
**A.** 0.1 µg/mL (≈ 0.203 µM)

**Q.** What about the MIC (M. suipneumoniae HR(2)) of the same molecule?
**A.** 0.1 µg/mL (≈ 0.203 µM)

**Q.** What about the MIC ([6]; NCTC10662, Ps. aeruginosa NCTC 10662, nutrient agar 5% chocolated horse blood, 18 hours 37° C., read-out: MIC) of the same molecule?
**A.** > 100 µg/mL

**Q.** What about the MIC (Strep. faecalis 1; Enterococcus faecalis, Strep. faecalis 1, nutrient agar 5% chocolated horse blood, 18 hours 37° C., read-out: MIC) of the same molecule?
**A.** 50 µg/mL (≈ 101 µM)

**Q.** What about the MIC (P. mirabilis 889; Proteus mirabilis, P. mirabilis 889, nutrient agar 5% chocolated horse blood, 18 hours 37° C., read-out: MIC) of the same molecule?
**A.** > 100 µg/mL

**Q.** And the MIC (Staph. aureus Russell; Staph. aureus Russell, nutrient agar 5% chocolated horse blood, 18 hours 37° C., read-out: MIC)?
**A.** 2.5 µg/mL (≈ 5.07 µM)

**Q.** And the MIC ([7]; Strep. pyogenes R80/421-A, nutrient agar 5% chocolated horse blood, 18 hours 37° C., read-out: MIC)?
**A.** 0.25 µg/mL (≈ 0.507 µM)

**Q.** And the MIC ([8]; Haemophilus influenzae Q1, nutrient agar 5% chocolated horse blood, 18 hours 37° C., read-out: MIC)?
**A.** 0.5 µg/mL (≈ 1.01 µM)

**Q.** What about the MIC ([9]; Corynebacterium xerosis 9755, nutrient agar 5% chocolated horse blood, 18 hours 37° C., read-out: MIC) of the same molecule?
**A.** > 100 µg/mL

**Q.** What about the MIC (K. aerogenes A; K. aerogenes A, nutrient agar 5% chocolated horse blood, 18 hours 37° C., read-out: MIC) of the same molecule?
**A.** > 100 µg/mL

**Q.** And the MIC (Sarcina lutea 8340; Micrococcus luteus, Sarcina lutea 8340, nutrient agar 5% chocolated horse blood, 18 hours 37° C., read-out: MIC)?
**A.** > 100 µg/mL

**Q.** What about the MIC (E. Coli NCTC 10418; NCTC10418, E. coli NCTC 10418, nutrient agar 5% chocolated horse blood, 18 hours 37° C., read-out: MIC) of the same molecule?
**A.** > 100 µg/mL

**Q.** What about the MIC (Bacillus subtilis 6633; Bacillus subtilis 6633, nutrient agar 5% chocolated horse blood, 18 hours 37° C., read-out: MIC) of the same molecule?
**A.** 0.25 µg/mL (≈ 0.507 µM)

**Q.** And the MIC (Staph. aureus W2827; Staph. aureus W2827, nutrient agar 5% chocolated horse blood, 18 hours 37° C., read-out: MIC)?
**A.** 2.5 µg/mL (≈ 5.07 µM)

**Q.** And the MIC (Staph. aureus Oxford; Staph. aureus Oxford, nutrient agar 5% chocolated horse blood, 18 hours 37° C., read-out: MIC)?
**A.** 2.5 µg/mL (≈ 5.07 µM)

**Q.** What about the MIC ([10]; Pasteurella multocida 1633, nutrient agar 5% chocolated horse blood, 18 hours 37° C., read-out: MIC) of the same molecule?
**A.** 2.5 µg/mL (≈ 5.07 µM)

**Q.** How did the MIC (M. suipneumoniae OCD 1) turn out when C/C(=C\C(=O)OCc1ccc([N+](=O)[O-])c([N+](=O)[O-])c1)CC1OCC(CC2OC2C(C)C(C)O)C(O)C1O (centres unmarked) [Example 9, 3,4-dinitrobenzyl monate A] was run?
**A.** 0.5 µg/mL (≈ 0.953 µM)

**Q.** What about the MIC (M. suipneumoniae JF 435) of the same molecule?
**A.** 1 µg/mL (≈ 1.91 µM)

**Q.** What about the MIC (M. bovis RCTC 10131) of the same molecule?
**A.** ≤ 0.01 µg/mL

**Q.** And the MIC [1]?
**A.** 0.25 µg/mL (≈ 0.477 µM)

**Q.** What about the MIC [2] of the same molecule?
**A.** 0.25 µg/mL (≈ 0.477 µM)

**Q.** What about the MIC ([3]; J2206/183B) of the same molecule?
**A.** 1 µg/mL (≈ 1.91 µM)

**Q.** And the MIC (M. suipneumoniae LABER)?
**A.** 0.25 µg/mL (≈ 0.477 µM)

**Q.** And the MIC (M. suipneumoniae Str. 11)?
**A.** 0.25 µg/mL (≈ 0.477 µM)

**Q.** And the MIC [4]?
**A.** 0.5 µg/mL (≈ 0.953 µM)

**Q.** What about the MIC (M. suipneumoniae TAM 6N) of the same molecule?
**A.** 0.5 µg/mL (≈ 0.953 µM)

**Q.** What about the MIC ([5]; 18 h) of the same molecule?
**A.** 5 µg/mL (≈ 9.53 µM)

**Q.** What about the MIC (M. dispar RCTC 10125) of the same molecule?
**A.** 0.025 µg/mL (≈ 0.0477 µM)

**Q.** And the MIC (M. hyorhinis ATCC 25021)?
**A.** 0.25 µg/mL (≈ 0.477 µM)

**Q.** And the MIC (M. suipneumoniae HR(2))?
**A.** 0.5 µg/mL (≈ 0.953 µM)

**Q.** And the MIC ([6]; NCTC10662, 18 h)?
**A.** > 100 µg/mL

**Q.** And the MIC (Strep. faecalis 1; Enterococcus faecalis, 1, 18 h)?
**A.** 25 µg/mL (≈ 47.7 µM)

**Q.** And the MIC (P. mirabilis 889; Proteus mirabilis, 889, 18 h)?
**A.** 50 µg/mL (≈ 95.3 µM)

**Q.** What about the MIC (Staph. aureus Russell; 18 h) of the same molecule?
**A.** 2.5 µg/mL (≈ 4.77 µM)

**Q.** What about the MIC ([7]; R80/421A, 18 h) of the same molecule?
**A.** 0.25 µg/mL (≈ 0.477 µM)

**Q.** What about the MIC ([8]; Haemophilus influenzae, Q1, 18 h) of the same molecule?
**A.** 0.25 µg/mL (≈ 0.477 µM)

**Q.** And the MIC ([9]; Corynebacterium xerosis, 9755, 18 h)?
**A.** > 100 µg/mL

**Q.** What about the MIC (K. aerogenes A; 18 h) of the same molecule?
**A.** 100 µg/mL (≈ 191 µM)

**Q.** What about the MIC (Sarcina lutea 8340; Micrococcus luteus, 8340, 18 h) of the same molecule?
**A.** > 100 µg/mL

**Q.** What about the MIC (E. Coli NCTC 10418; NCTC10418, 18 h) of the same molecule?
**A.** 50 µg/mL (≈ 95.3 µM)

**Q.** What about the MIC (Bacillus subtilis 6633; Bacillus subtilis, 6633, 18 h) of the same molecule?
**A.** 0.5 µg/mL (≈ 0.953 µM)

**Q.** What about the MIC (Staph. aureus W2827; W2827, 18 h) of the same molecule?
**A.** 1 µg/mL (≈ 1.91 µM)

**Q.** What about the MIC (Staph. aureus Oxford; 18 h) of the same molecule?
**A.** 1 µg/mL (≈ 1.91 µM)

**Q.** What about the MIC ([10]; Pasteurella multocida, 1633, 18 h) of the same molecule?
**A.** 2.5 µg/mL (≈ 4.77 µM)
